Assay results: patent publication US12583859B2, “PRMT5 inhibitors and uses thereof” (California Institute of Technology, priority 2019, dated 2026)

What was measured:
[1] = biological target: T1, PRMT5 (Homo sapiens, UniProt O14744); experiment: PRMT5 Enzymatic Inhibition Assay (chemiluminescence immunoassay of histone H4 methylation); assay type: biochemical; settings: 1 hour at room temperature; 10 μM to 1 nM
T1 construct: purchased BPS Biosciences 52002L
Protocol: A chemiluminescence immunoassay (CLIA) measuring the amount of PRMT5-mediated histone methylation was performed in a 96-well plate format according to the manufacturer's protocol (BPS Biosciences, Cat #52002L). A 96-well plate precoated with histone H4 peptide was rehydrated prior to use. A master mix containing PRMT5 substrate S-adenosylmethionine, reaction buffer, and purified PRMT5 enzyme was added to create reaction-competent wells. Wells lacking either S-adenosylmethionine substrate or PRMT5 enzyme were created as negative controls. 10 test concentrations, ranging from 100 μM to 10 nM, of the test compound were prepared using a 1:3 serial dilution in dH2O. 5 μL of each test concentration was added into a reaction-competent well. 5 μL of a 1% DMSO aqueous solution lacking inhibitor was added into negative control wells and into a reaction-competent well, creating a positive control well. The final reaction volume in each well was 50 μL, and the final concentration of the test compound in each well ranged from 10 μM to 1 nM. A known inhibitor of PRMT5, EPZ015666, was tested in parallel reaction wells as an assay validation control. The 96-well plate was incubated for 1 hour at room temperature.
Upon completion of the incubation, the reaction supernatant in each well was discarded. Wells were washed with 1×TBST and incubated in blocking buffer for 1 hour. The wells were incubated with a primary antibody recognizing methylated Arg3 residues on Histone H4 for 1 hour. The wells were washed with 1×TBST again and subsequently incubated with an HRP-conjugated secondary antibody for 30 minutes. The wells were washed again with 1×TBST, and equal parts of the chemiluminescence reagents were added into each well. Quantification of luminescence was measured in a plate reader.
Luminescence values were normalized against the positive and negative controls to convert the data into % PRMT5 activity. An inhibitor concentration-dependent curve was plotted against % PRMT5 activity and am IC50 value was determined for each compound.

[2] = test system: drug-sensitive cell lines of Table 4; experiment: Cell Line Growth Retardation Assay, average maximum effect in sensitive cohort; assay type: cell-based, Human; settings: average maximum growth inhibition over sensitive cohort of Table 4; 6 days; up to 1 μM
Protocol: (§1) Cells were seeded at densities of 1,000-5,000 cells per well in 48-well tissue culture plates. After a 24 h rest period, cells were treated with compound at 1 μM, 0.2 μM, 0.04 μM, 0.008 μM, 0.0016 μM, and 0.00032 μM. A group of cells were treated with the vehicle in which the compound was prepared and served as a control. Prior to treatment, cells were counted and this count was used as a baseline for the calculation of growth inhibition. The cells were grown in the presence of compounds for 6 days and were counted on day 6. All cell counting was performed using a Synentec Cellavista plate imager. Growth inhibition was calculated as a ratio of cell population doublings in the presence of compound versus the absence of compound and expressed as the maximum percentage growth inhibition achieved across the range of tested concentrations of the compound (“maximum effect” or “ME”) calculated by fitting curves to data points from each dose-response assay using the Proc NLIN function in SAS for Windows version 9.2 (SAS Institute, Inc.).
(§2) Human cancer cell lines were grouped as “sensitive” or “resistant” to PRMT5 inhibition based on whether their growth was retarded by JNJ-64619178 (i.e., (1S,2R,3R,5R)-3-(2-(2-amino-3-bromoquinolin-7-yl)ethyl)-5-(4-amino-7H-pyrrolo[2,3-d]pyrimidin-7-yl)cyclopentane-1,2-diol) (data not shown; see Table 4). These sensitive and resistant cohorts were interrogated for response to each compound, and ME was calculated for each cell line using the same technique described above. Average MEs for the sensitive and resistant cohorts were calculated as arithmetic means of the group. “A” represents a percent of maximum effect of 60% or greater, “B” represents a percent of maximum effect of 30% to 59%, and “C” represents a percent of maximum effect of 29% or lower.

[3] = test system: drug-resistant cell lines of Table 4; experiment: Cell Line Growth Retardation Assay, average maximum effect in resistant cohort; assay type: cell-based, Human; settings: average maximum growth inhibition over resistant cohort of Table 4; 6 days; up to 1 μM
Protocol: as §1, §2

T1 sequence (O14744 2-637 limits assumed): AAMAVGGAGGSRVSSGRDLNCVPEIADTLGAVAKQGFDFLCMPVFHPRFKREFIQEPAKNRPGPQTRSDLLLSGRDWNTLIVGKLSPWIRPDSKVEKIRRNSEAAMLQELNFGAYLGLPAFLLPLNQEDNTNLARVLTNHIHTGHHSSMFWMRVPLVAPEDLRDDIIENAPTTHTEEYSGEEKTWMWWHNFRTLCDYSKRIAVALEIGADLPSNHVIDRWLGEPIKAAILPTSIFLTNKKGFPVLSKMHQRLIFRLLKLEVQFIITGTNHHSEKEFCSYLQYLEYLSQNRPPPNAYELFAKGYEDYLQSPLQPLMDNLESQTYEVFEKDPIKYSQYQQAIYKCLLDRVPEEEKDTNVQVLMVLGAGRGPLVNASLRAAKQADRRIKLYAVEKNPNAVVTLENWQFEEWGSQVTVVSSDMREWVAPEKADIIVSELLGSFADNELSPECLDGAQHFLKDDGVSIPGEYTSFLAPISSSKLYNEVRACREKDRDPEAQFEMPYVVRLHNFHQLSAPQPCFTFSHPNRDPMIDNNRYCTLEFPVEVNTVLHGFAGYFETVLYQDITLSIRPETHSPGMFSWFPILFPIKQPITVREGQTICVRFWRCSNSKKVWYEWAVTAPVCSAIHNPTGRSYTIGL
T1 sequence (Q9BQA1 2-342 partner limits assumed): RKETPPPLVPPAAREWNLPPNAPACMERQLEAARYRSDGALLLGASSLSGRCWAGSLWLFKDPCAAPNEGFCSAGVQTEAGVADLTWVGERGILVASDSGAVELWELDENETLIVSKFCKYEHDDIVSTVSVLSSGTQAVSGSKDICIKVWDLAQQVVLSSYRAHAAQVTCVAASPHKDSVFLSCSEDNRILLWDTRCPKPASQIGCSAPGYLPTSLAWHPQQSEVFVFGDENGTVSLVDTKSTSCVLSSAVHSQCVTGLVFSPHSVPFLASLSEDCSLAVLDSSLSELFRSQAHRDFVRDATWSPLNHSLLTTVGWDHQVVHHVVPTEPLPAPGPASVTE

| SMILES | IC50 [1] | AvgSens ME (%) [2] | AvgRes ME (%) [3] |
| --- | --- | --- | --- |
| O[C@H]1[C@H](n2ccc3c(Cl)ncnc32)C[C@@]2(CNC(c3ccc4cc(Br)c(Cl)nc4c3)C2)[C@H]1O (single isomer, unassigned) [Compound 1] | > 500 nM | C (a percent of maximum effect of 29% or lower) | C (a percent of maximum effect of 29% or lower) |
| O[C@H]1[C@H](n2ccc3c(Cl)ncnc32)C[C@@]2(CNC(c3ccc4cc(Br)c(Cl)nc4c3)C2)[C@H]1O (single isomer, unassigned) [Compound 2] | > 500 nM | C (a percent of maximum effect of 29% or lower) | C (a percent of maximum effect of 29% or lower) |
| Nc1ncnc2c1ccn2[C@@H]1C[C@@]2(CNC(c3ccc4cc(Br)c(Cl)nc4c3)C2)[C@@H](O)[C@H]1O (single isomer, unassigned) [Compound 3] | > 500 nM | C (a percent of maximum effect of 29% or lower) | C (a percent of maximum effect of 29% or lower) |
| Nc1ncnc2c1ccn2[C@@H]1C[C@@]2(CNC(c3ccc4cc(Br)c(Cl)nc4c3)C2)[C@@H](O)[C@H]1O (single isomer, unassigned) [Compound 4] | 101 to 500 nM | C (a percent of maximum effect of 29% or lower) | C (a percent of maximum effect of 29% or lower) |
| Nc1nc2cc(C3C[C@@]4(CN3)C[C@@H](n3ccc5c(N)ncnc53)[C@H](O)[C@@H]4O)ccc2cc1Br (single isomer, unassigned) [Compound 7] | ≤ 100 nM | A (a percent of maximum effect of 60% or greater) | B (a percent of maximum effect of 30% to 59%) |
| Nc1nc2cc(C3C[C@@]4(CN3)C[C@@H](n3ccc5c(Cl)ncnc53)[C@H](O)[C@@H]4O)ccc2cc1Br (single isomer, unassigned) [Compound 10] | 101 to 500 nM | C (a percent of maximum effect of 29% or lower) | C (a percent of maximum effect of 29% or lower) |

Second part, led by results:

| IC50 [1] | SMILES | AvgSens ME (%) [2] | AvgRes ME (%) [3] |
| --- | --- | --- | --- |
| 101 to 500 nM | CN1C[C@]2(CC1c1ccc3cc(Br)c(N)nc3c1)C[C@@H](n1ccc3c(N)ncnc31)[C@H](O)[C@@H]2O (single isomer, unassigned) [Compound 5] | C (a percent of maximum effect of 29% or lower) | C (a percent of maximum effect of 29% or lower) |
| > 500 nM | CN1C[C@]2(CC1c1ccc3cc(Br)c(N)nc3c1)C[C@@H](n1ccc3c(N)ncnc31)[C@H](O)[C@@H]2O (single isomer, unassigned) [Compound 6] | C (a percent of maximum effect of 29% or lower) | C (a percent of maximum effect of 29% or lower) |
| ≤ 100 nM | Nc1nc2cc(C3C[C@@]4(CO3)C[C@@H](n3ccc5c(N)ncnc53)[C@H](O)[C@@H]4O)ccc2cc1Br (single isomer, unassigned) [Compound 16] | A (a percent of maximum effect of 60% or greater) | B (a percent of maximum effect of 30% to 59%) |
| ≤ 100 nM | Nc1nc2cc(C3C[C@@]4(CO3)C[C@@H](n3ccc5c(Cl)ncnc53)[C@H](O)[C@@H]4O)ccc2cc1Br (stereo partly drawn) [Compound 18] | C (a percent of maximum effect of 29% or lower) | C (a percent of maximum effect of 29% or lower) |
| ≤ 100 nM | CC(C)Nc1ncnc2c1ccn2[C@@H]1C[C@@]2(CO[C@@H](c3ccc4cc(Br)c(N)nc4c3)C2)[C@@H](O)[C@H]1O [Compound 25] | B (a percent of maximum effect of 30% to 59%) | C (a percent of maximum effect of 29% or lower) |
| ≤ 100 nM | CCCNc1ncnc2c1ccn2[C@@H]1C[C@@]2(CO[C@@H](c3ccc4cc(Br)c(N)nc4c3)C2)[C@@H](O)[C@H]1O [Compound 26] | B (a percent of maximum effect of 30% to 59%) | B (a percent of maximum effect of 30% to 59%) |
